Assay results reported in the supplement of paper PMC10307832.

How the values were obtained:
Assay in all cases: relative viability (nuclei count vs DMSO), 5 days (fraction); higher = more cells survive
Wnt-C59 + Dasatinib = compound: CC1=NC=CC(=C1)C2=CC=C(C=C2)CC(=O)NC3=CC=C(C=C3)C4=CN=CC=C4 [Wnt-C59] + Cc1nc(Nc2ncc(C(=O)Nc3c(C)cccc3Cl)s2)cc(N2CCN(CCO)CC2)n1 [Dasatinib] (partner 0.075 µM)
In short: (§1)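 A single step with final 0.05% Triton X-100, 1% formaldehyde and 1 ug/ml Hoechst fixed the cells and stained nuclei 5 days after treatment. Lung cancer cell lines in 1536-well plates had been treated by pin tool the day after seeding with one drug alone or a fixed anchor-drug dose plus five library-drug doses (not always all listed) in √10 steps, and nuclei were counted on 4× images. Relative viability is the ratio of nuclei in treated wells to nuclei in vehicle wells, taken as the median of duplicate plates.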

Lapatinib + Trametinib = compound: CS(=O)(=O)CCNCc1ccc(-c2ccc3ncnc(Nc4ccc(OCc5cccc(F)c5)c(Cl)c4)c3c2)o1 [Lapatinib] + CC(=O)Nc1cccc(-n2c(=O)n(C3CC3)c(=O)c3c(Nc4ccc(I)cc4F)n(C)c(=O)c(C)c32)c1 [Trametinib] (partner 0.02 µM)
In short: as §1

Lapatinib + Navitoclax = compound: CS(=O)(=O)CCNCc1ccc(-c2ccc3ncnc(Nc4ccc(OCc5cccc(F)c5)c(Cl)c4)c3c2)o1 [Lapatinib] + CC1(C)CCC(c2ccc(Cl)cc2)=C(CN2CCN(c3ccc(C(=O)NS(=O)(=O)c4ccc(N[C@H](CCN5CCOCC5)CSc5ccccc5)c(S(=O)(=O)C(F)(F)F)c4)cc3)CC2)C1 [Navitoclax] (partner 0.5 µM)
In short: as §1

Lapatinib + Alpelisib = compound: CS(=O)(=O)CCNCc1ccc(-c2ccc3ncnc(Nc4ccc(OCc5cccc(F)c5)c(Cl)c4)c3c2)o1 [Lapatinib] + Cc1nc(NC(=O)N2CCC[C@H]2C(N)=O)sc1-c1ccnc(C(C)(C)C(F)(F)F)c1 [Alpelisib] (partner 2 µM)
In short: as §1

Cell Line | relative viability (Wnt-C59 + Dasatinib; first compound 0.001 µM) | relative viability (Wnt-C59 + Dasatinib; first compound 0.01 µM) | relative viability (Wnt-C59 + Dasatinib; first compound 0.03162 µM) | relative viability (Wnt-C59 + Dasatinib; first compound 0.1 µM) | relative viability (Lapatinib + Trametinib; first compound 0.02 µM) | relative viability (Lapatinib + Trametinib; first compound 0.06325 µM) | relative viability (Lapatinib + Trametinib; first compound 0.2 µM) | relative viability (Lapatinib + Trametinib; first compound 0.6325 µM) | relative viability (Lapatinib + Trametinib; first compound 2 µM) | relative viability (Lapatinib + Navitoclax; first compound 0.2 µM) | relative viability (Lapatinib + Navitoclax; first compound 0.6325 µM) | relative viability (Lapatinib + Navitoclax; first compound 2 µM) | relative viability (Lapatinib + Alpelisib; first compound 0.2 µM) | relative viability (Lapatinib + Alpelisib; first compound 0.6325 µM) | relative viability (Lapatinib + Alpelisib; first compound 2 µM) | relative viability (Lapatinib + Navitoclax; first compound 0.02 µM) | relative viability (Lapatinib + Navitoclax; first compound 0.06325 µM) | relative viability (Lapatinib + Alpelisib; first compound 0.02 µM) | relative viability (Lapatinib + Alpelisib; first compound 0.06325 µM)
NCI-H1944 | 0.24 | 0.218 | 0.195 | 0.179 | 0.41 | 0.35 | 0.388 | 0.322 | 0.288 | 0.885 | 0.864 | 0.789 | 0.645 | 0.647 | 0.488 |  |  |  | 
201T | 0.615 | 0.578 | 0.505 | 0.558 | 0.735 | 0.719 | 0.694 | 0.726 | 0.651 | 1.16 | 1.22 | 1.2 | 0.993 | 1 | 0.943 | 1.16 | 1.22 | 0.998 | 0.834
NCI-H2087 | 0.733 | 0.868 | 0.943 | 0.806 | 0.208 | 0.186 | 0.182 | 0.217 | 0.191 | 1.06 | 1 | 0.962 | 1.21 | 1.01 | 0.931 | 0.932 | 0.96 | 1.12 | 1.06
BEN | 0.329 | 0.3 | 0.35 | 0.385 | 1.05 | 0.898 | 1.05 | 0.931 | 0.999 | 0.061 | 0.0751 | 0.0557 | 1.19 | 0.909 | 0.853 | 0.0643 | 0.0706 | 0.961 | 0.904
